According to PubChem BioAssay (NCI):
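Following 48 hours of exposure in 96-well plates, responses at five concentrations were used to interpolate endpoints linearly. The concentration for 50% growth inhibition is given as GI50. TGI marks complete inhibition of growth.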

Assays:
Assay in all cases: NCI anticancer screen, dose series, 48 h
A549 NSCLC = tested on: A549 NSCLC
ACHN renal = tested on: ACHN renal
UACC-62 melanoma = tested on: UACC-62 melanoma
IGROV1 ovarian = tested on: IGROV1 ovarian
SNB-19 CNS = tested on: SNB-19 CNS
CCRF-CEM leukemia = tested on: CCRF-CEM leukemia
SN12C renal = tested on: SN12C renal
NCI-H460 lung = tested on: NCI-H460 lung
T-47D breast = tested on: T-47D breast
SR leukemia = tested on: SR leukemia

SMILES | TGI (A549 NSCLC) | TGI (ACHN renal) | TGI (UACC-62 melanoma) | TGI (IGROV1 ovarian) [µM] | TGI (SNB-19 CNS) | TGI (CCRF-CEM leukemia) | TGI (SN12C renal) | TGI (NCI-H460 lung) | GI50 (A549 NSCLC) | GI50 (ACHN renal) | GI50 (UACC-62 melanoma) | GI50 (IGROV1 ovarian) [µM] | GI50 (SNB-19 CNS) | GI50 (T-47D breast) | TGI (T-47D breast) | GI50 (CCRF-CEM leukemia) | GI50 (SN12C renal) | GI50 (NCI-H460 lung) | GI50 (SR leukemia) | TGI (SR leukemia)
COC(=O)C(=O)C(C#N)c1nc2ccccc2s1 (stereo not drawn) | > 100 µM | > 100 µM | > 100 µM | > 100 | > 100 µM | > 100 µM | > 100 µM | > 100 µM | – | – | – | – | – | – | – | – | – | – | – | –
O=C(NCc1cn(Cc2cccc(Oc3ccccc3)c2)nn1)c1cccnc1Nc1ccc(F)cc1 | > 100 µM | > 100 µM | > 100 µM | > 100 | > 100 µM | > 100 µM | > 100 µM | > 100 µM | 6.11 µM | 11 µM | 6.51 µM | 30.7 | 20.7 µM | 21.4 µM | > 100 µM | > 100 µM | 52.6 µM | 5.25 µM | – | –
CC(C)(C)CC(C)(C)c1ccc(OCCO)cc1 | > 75 µg/mL | > 75 µg/mL | 15.9 µg/mL | – | 19.5 µg/mL | 40.1 µg/mL | 16.7 µg/mL | 16.4 µg/mL | 9.04 µg/mL | 6.05 µg/mL | 3.51 µg/mL | – | 6.58 µg/mL | 2.1 µg/mL | 18.3 µg/mL | 6.02 µg/mL | 6.38 µg/mL | 2.95 µg/mL | 1.43 µg/mL | > 75 µg/mL
O=C(Cc1ccccc1)NN1C(=O)C(Cl)C1c1ccc(Cl)cc1 (stereo not drawn) | > 100 µM | > 100 µM | > 100 µM | > 100 | > 100 µM | > 100 µM | > 100 µM | > 100 µM | – | – | – | – | – | – | – | – | – | – | – | > 100 µM
CC1(OCc2ccccc2)C(=O)N2C1NCC2(C)C (stereo not drawn) | > 100 µM | > 100 µM | > 100 µM | > 100 | > 100 µM | > 100 µM | > 100 µM | > 100 µM | – | – | – | – | – | – | – | – | – | – | – | > 100 µM
O=C([CH-]C(=O)c1ccccc1)c1ccccc1.O=C([CH-]C(=O)c1ccccc1)c1ccccc1.O=C([CH-]C(=O)c1ccccc1)c1ccccc1.[Ga+3] | > 100 µM | > 100 µM | > 100 µM | > 100 | > 100 µM | – | > 100 µM | > 100 µM | 39.6 µM | 59 µM | 32.7 µM | 81.9 | > 100 µM | – | – | – | 43.8 µM | 16.3 µM | 9.53 µM | > 100 µM
NS(=O)(=O)c1ccc(N(/C=C/C(=O)C(F)(F)F)CC(=O)c2ccc(F)cc2)cc1 | > 100 µM | 67.1 µM | 31.9 µM | 52.5 | > 100 µM | 41.5 µM | 45.3 µM | > 100 µM | 44.2 µM | 21.3 µM | 17.6 µM | 24.8 | 53.8 µM | 43 µM | > 100 µM | 15.6 µM | 19.4 µM | 28.1 µM | – | –
COc1ccc(C(=O)C(C(=O)CCC(=O)Nc2ccc(Cl)c(Cl)c2)c2ccc(OC)cc2)cc1 (stereo not drawn) | > 100 µM | > 100 µM | > 100 µM | > 100 | > 100 µM | > 100 µM | > 100 µM | > 100 µM | – | – | – | – | – | – | – | – | – | – | – | –
C/C(CN1C(=O)c2ccccc2C1=O)=N\NS(=O)(=O)c1ccc2ccccc2c1 | > 100 µM | > 100 µM | > 100 µM | > 100 | > 100 µM | > 100 µM | > 100 µM | > 100 µM | – | – | – | – | – | – | – | – | – | – | – | > 100 µM
Cc1ccc(S(=O)c2ccccc2[N+](=O)[O-])cc1 (stereo not drawn) | > 100 µM | > 100 µM | > 100 µM | > 100 | > 100 µM | > 100 µM | > 100 µM | > 100 µM | – | – | – | – | – | – | – | – | – | – | – | > 100 µM
C[C@@H]1C(=O)CC2C(C)(C)CCC[C@]2(C)[C@@]12CC[C@]1(C=COC1)O2 (stereo partly drawn) | > 100 µM | > 100 µM | > 100 µM | > 100 | > 100 µM | 70.8 µM | 38 µM | > 100 µM | – | – | – | – | – | – | – | – | – | – | – | 59 µM
CN(C)CCC(N)(P(=O)([O-])[O-])P(=O)([O-])[O-].N.N.[Pt+2] | > 100 µM | > 100 µM | > 100 µM | > 100 | > 100 µM | > 100 µM | > 100 µM | – | > 100 µM | > 100 µM | > 100 µM | > 100 | > 100 µM | – | – | > 100 µM | > 100 µM | – | > 100 µM | > 100 µM
NC(N)NCCCc1cn2c(n1)C1CCCN1C(=O)C2Cc1ccccc1 (stereo not drawn) | > 100 µM | > 100 µM | > 100 µM | > 100 | > 100 µM | > 100 µM | > 100 µM | > 100 µM | – | – | – | – | – | – | – | – | – | – | – | –
CN(C)CC1CC/C(=C\c2ccc(Cl)c(Cl)c2)C1=O (stereo not drawn) | > 100 µM | > 62.5 µM | 31.5 µM | > 69.6 | > 56.1 µM | 22.7 µM | > 55.8 µM | 36.1 µM | – | – | – | – | – | – | – | – | – | – | – | 6.91 µM
O=C(CCc1nnc2s/c(=C\c3ccc([N+](=O)[O-])cc3)c(=O)n12)Nc1ccc(Cl)c(Cl)c1 | > 100 µM | > 100 µM | 78.8 µM | 50 | > 100 µM | 51 µM | 63.9 µM | > 100 µM | – | – | – | – | – | – | – | – | – | – | – | –
CC(=O)/C(=C\c1ccc(Cl)cc1)c1ccccc1 | > 100 µM | > 70 µM | > 93.8 µM | > 100 | > 100 µM | > 100 µM | > 100 µM | 13.5 µM | 0.255 µM | 0.548 µM | 0.0473 µM | 0.344 | 0.344 µM | – | – | 0.0534 µM | 0.541 µM | 0.0845 µM | 0.0415 µM | > 49.7 µM
CC(=O)C1(O)CC2(c3ccccc3)C(=O)C1(c1ccccc1)C(c1ccccc1)=C2c1ccccc1 (stereo not drawn) | > 100 µM | – | > 100 µM | > 100 | > 100 µM | > 100 µM | > 100 µM | > 100 µM | – | – | – | – | – | – | – | – | – | – | – | > 100 µM
